Source: PMC7909954 (eLife, 2021)
Where “and” joins values, the source holds several entries; their conditions need not be identical. Equal values may be shown once.

Assays:
mMOR = mMOR (Mus musculus, UniProt P42866); test: cell-based
KOR = KOR (Homo sapiens, UniProt P41145); test: cell-based
[1] = system: MOR KO, KOR KO and DOR KO mice; test: 55°C warm-water tail-withdrawal assay in opioid receptor knock out mice; format: in vivo, mouse
α2C-adrenoreceptors = biological target: T1, α2C-adrenoreceptors (Homo sapiens, UniProt P18825); test: Radioligand binding counter-screen (NIMH PDSP)
T1 construct: NIMH Psychoactive Drug Screening Program
T1 sequence (P18825 1-462): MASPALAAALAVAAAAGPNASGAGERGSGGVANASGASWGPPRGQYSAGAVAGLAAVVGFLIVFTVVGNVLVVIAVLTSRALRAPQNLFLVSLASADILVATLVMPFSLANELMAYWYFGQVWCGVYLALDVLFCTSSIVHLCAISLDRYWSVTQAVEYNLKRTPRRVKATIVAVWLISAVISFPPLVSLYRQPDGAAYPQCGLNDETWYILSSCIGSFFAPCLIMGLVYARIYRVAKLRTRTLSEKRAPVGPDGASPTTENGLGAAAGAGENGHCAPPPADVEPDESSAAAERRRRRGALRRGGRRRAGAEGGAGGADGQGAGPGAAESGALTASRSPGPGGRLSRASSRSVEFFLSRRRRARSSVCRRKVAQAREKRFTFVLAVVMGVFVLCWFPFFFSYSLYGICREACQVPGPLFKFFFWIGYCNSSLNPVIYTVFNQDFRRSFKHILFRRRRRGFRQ

mDOR [2] = biological target: T2, mDOR (Mus musculus, UniProt P32300); details: binding assays
MOR = MOR (Homo sapiens, UniProt P35372); test: cell-based
DOR = DOR (Homo sapiens, UniProt P41143); test: Radioligand binding counter-screen (NIMH PDSP); set-up: National Institutes of Mental Health Psychoactive Drug Screen Program (service)
mDOR [3] = biological target: T2, mDOR; test: biochemical; details: read-out: Emax mDOR [35S]GTPγS
[4] = DOR KO mice, 100 nmol i.c.v. in 50% DMSO, group mean n=8
[5] = DOR KO mice, 100 nmol i.c.v. in 50% DMSO, individual mouse
[6] = KOR KO mice, 100 nmol i.c.v. in 50% DMSO, group mean n=8
[7] = KOR KO mice, 100 nmol i.c.v. in 50% DMSO, individual mouse
[8] = KOR KO mice, 100 nmol i.c.v. in 50% DMSO, group mean n=6
[9] = KOR KO mice, 100 nmol i.c.v., per mouse
[10] = MP1207 30 nmol icv, MP1208 35 nmol icv

KOR, sequence (P41145 whole entry): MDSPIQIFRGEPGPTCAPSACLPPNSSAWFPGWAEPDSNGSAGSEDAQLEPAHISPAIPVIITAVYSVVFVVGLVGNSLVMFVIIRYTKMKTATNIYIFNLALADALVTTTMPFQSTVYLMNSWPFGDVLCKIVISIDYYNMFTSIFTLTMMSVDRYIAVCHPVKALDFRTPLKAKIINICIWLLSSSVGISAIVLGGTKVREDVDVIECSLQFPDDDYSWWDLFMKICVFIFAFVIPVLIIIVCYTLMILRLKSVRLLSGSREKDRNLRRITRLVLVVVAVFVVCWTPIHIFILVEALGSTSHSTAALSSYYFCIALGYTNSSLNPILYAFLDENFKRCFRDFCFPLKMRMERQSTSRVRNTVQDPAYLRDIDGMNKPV
T2 sequence (P32300 whole entry): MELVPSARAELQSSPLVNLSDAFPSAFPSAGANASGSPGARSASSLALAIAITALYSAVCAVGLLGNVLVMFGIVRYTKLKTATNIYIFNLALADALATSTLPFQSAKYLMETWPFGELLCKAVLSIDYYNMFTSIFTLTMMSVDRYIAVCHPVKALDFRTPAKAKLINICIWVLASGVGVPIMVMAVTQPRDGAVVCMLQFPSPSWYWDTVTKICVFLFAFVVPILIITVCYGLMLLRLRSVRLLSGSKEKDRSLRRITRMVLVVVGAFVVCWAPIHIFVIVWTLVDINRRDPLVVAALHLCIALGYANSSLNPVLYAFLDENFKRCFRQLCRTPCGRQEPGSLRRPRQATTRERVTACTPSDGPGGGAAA
MOR, sequence (P35372 whole entry): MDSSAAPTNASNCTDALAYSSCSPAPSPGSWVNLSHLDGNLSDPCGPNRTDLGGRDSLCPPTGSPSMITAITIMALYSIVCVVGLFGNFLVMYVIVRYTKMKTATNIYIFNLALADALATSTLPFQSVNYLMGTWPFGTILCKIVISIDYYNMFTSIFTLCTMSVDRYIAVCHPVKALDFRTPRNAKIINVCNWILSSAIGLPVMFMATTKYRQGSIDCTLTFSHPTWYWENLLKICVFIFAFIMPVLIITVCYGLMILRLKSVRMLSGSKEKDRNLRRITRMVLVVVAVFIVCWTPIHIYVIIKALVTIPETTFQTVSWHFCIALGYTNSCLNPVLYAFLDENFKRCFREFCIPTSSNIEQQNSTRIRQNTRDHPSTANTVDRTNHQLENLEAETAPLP
mMOR, sequence (P42866 whole entry): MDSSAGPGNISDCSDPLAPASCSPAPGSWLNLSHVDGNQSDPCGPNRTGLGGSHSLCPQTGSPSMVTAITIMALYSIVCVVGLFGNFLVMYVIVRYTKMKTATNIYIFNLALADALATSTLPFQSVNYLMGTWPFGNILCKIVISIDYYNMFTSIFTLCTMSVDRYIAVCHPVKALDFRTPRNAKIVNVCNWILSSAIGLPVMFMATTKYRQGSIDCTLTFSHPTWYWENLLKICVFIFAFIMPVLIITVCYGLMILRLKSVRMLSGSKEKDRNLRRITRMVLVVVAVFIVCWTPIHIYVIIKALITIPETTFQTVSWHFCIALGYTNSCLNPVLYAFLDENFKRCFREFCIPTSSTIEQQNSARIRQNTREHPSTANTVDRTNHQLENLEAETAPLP
DOR, sequence (P41143 whole entry): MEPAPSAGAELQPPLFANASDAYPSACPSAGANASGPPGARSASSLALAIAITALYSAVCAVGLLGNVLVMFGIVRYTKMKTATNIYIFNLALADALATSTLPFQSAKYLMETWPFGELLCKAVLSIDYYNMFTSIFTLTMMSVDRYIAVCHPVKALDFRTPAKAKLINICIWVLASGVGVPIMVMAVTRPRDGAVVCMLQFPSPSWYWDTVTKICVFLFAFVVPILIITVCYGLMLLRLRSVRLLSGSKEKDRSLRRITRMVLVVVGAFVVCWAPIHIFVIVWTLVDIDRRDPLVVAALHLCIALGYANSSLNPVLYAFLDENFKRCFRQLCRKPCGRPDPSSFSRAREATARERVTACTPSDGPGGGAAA

NCc1cccc(C(=O)N[C@@H]2CCC3C4Cc5ccc(O)c6c5[C@@]3(CCN4CC3CC3)C2O6)c1 (stereo partly drawn) [MP1207, 3-(Aminomethyl)-N-((7R,12bS)−3-(cyclopropylmethyl)−9-hydroxy-2,3,4,4a,5,6,7,7a-octahydro-1H-4,12-methanobenzofuro[3,2-e]isoquinolin-7-yl)benzamide]
EC50 (mMOR; EC50 G protein activation (BRET) mMOR): 3.61 nM
Emax (mMOR; HEK-293T, read-out: Emax% G protein activation (BRET) mMOR): 42 ± 2.6%
EC50 (KOR; EC50 cAMP inhibition hKOR): 0.11 nM
Emax (KOR; HEK-293T, read-out: Emax% cAMP inhibition hKOR): 90 ± 1.7%
EC50 (KOR; pEC50 cAMP inhibition hKOR, ± SEM): 0.105 nM
%A-10 min [1, 4]: 77.68%
tail-withdrawal latency, 10 min [1, 4]: 12.075 s
%A-10 min [1, 5]: 100% and 14.62% and 6.82%
tail-withdrawal latency, 10 min [1, 5]: 15 s and 3.9 s and 2.7 s
%A-20 min [1, 4]: 75.4713%
tail-withdrawal latency, 20 min [1, 4]: 11.775 s
%A-20 min [1, 5]: 100% and 91.85% and 84.33% and 20.77% and 6.82%
tail-withdrawal latency, 20 min [1, 5]: 15 s and 13.9 s and 12.9 s and 4.7 s and 2.7 s
%A-30 min [1, 4]: 78.53%
tail-withdrawal latency, 30 min [1, 4]: 12.1875 s
%A-30 min [1, 5]: 100% and 13.85% and 14.39%
tail-withdrawal latency, 30 min [1, 5]: 15 s and 3.8 s and 3.7 s
%A-40 min [1, 4]: 46.6687%
tail-withdrawal latency, 40 min [1, 4]: 7.925 s
%A-40 min [1, 5]: 100% and 51.85% and 38.64% and 23.13% and 45.52% and 89.78% and 12.31% and 12.12%
tail-withdrawal latency, 40 min [1, 5]: 15 s and 8.5 s and 6.9 s and 4.7 s and 7.7 s and 13.6 s and 3.6 s and 3.4 s
%A-50 min [1, 4]: 38.3875%
tail-withdrawal latency, 50 min [1, 4]: 6.8 s
%A-50 min [1, 5]: 62.12% and 17.04% and 35.61% and 100% and 29.1% and 37.96% and 17.69% and 7.58%
tail-withdrawal latency, 50 min [1, 5]: 10 s and 3.8 s and 6.5 s and 15 s and 5.5 s and 4.3 s and 2.8 s
%A-60 min [1, 4]: 43.0038%
tail-withdrawal latency, 60 min [1, 4]: 7.425 s
%A-60 min [1, 5]: 62.12% and 55.56% and 25% and 100% and 36.57% and 36.5% and 16.92% and 11.36%
tail-withdrawal latency, 60 min [1, 5]: 10 s and 9 s and 5.1 s and 15 s and 6.5 s and 6.3 s and 4.2 s and 3.3 s
%A-70 min [1, 4]: 13.2125%
tail-withdrawal latency, 70 min [1, 4]: 3.4375 s
%A-70 min [1, 5]: 10.61% and 9.63% and 20.45% and 13.43% and 5.97% and 19.71% and 9.23% and 16.67%
tail-withdrawal latency, 70 min [1, 5]: 3.2 s and 2.8 s and 4.5 s and 3.4 s and 2.4 s and 4 s
%A-80 min [1, 4]: 8.564%
tail-withdrawal latency, 80 min [1, 4]: 2.8125 s
%A-80 min [1, 5]: 5.3% and 7.41% and 6.82% and 9.7% and 4.48% and 5.84% and 11.54% and 17.42%
tail-withdrawal latency, 80 min [1, 5]: 2.5 s and 2.7 s and 2.9 s and 2.2 s and 2.1 s and 3.5 s and 4.1 s
%A-90 min [1, 4]: 3.185%
tail-withdrawal latency, 90 min [1, 4]: 1.95 s
%A-90 min [1, 5]: 3.03% and 3.7% and 0% and 5.11% and 13.64%
tail-withdrawal latency, 90 min [1, 5]: 2.2 s and 2 s and 1.5 s and 1.4 s and 1.1 s and 1.8 s and 3.6 s
%A-100 min [1, 4]: 2.474%
tail-withdrawal latency, 100 min [1, 4]: 1.925 s
%A-100 min [1, 5]: 0% and 2.22% and 0.75% and 2.24% and 0.73% and 13.85%
tail-withdrawal latency, 100 min [1, 5]: 1.6 s and 1.8 s and 1.4 s and 1.7 s and 1.9 s and 3.8 s
%A-110 min [1, 4]: 0.555%
tail-withdrawal latency, 110 min [1, 4]: 1.6125 s
%A-110 min [1, 5]: 0% and 2.22% and 1.49% and 0.73%
tail-withdrawal latency, 110 min [1, 5]: 1.3 s and 1.8 s and 1.6 s and 1.4 s and 1.9 s and 1.7 s
%A-10 min [1, 6]: 63.4062%
tail-withdrawal latency, 10 min [1, 6]: 10.1 s
%A-10 min [1, 7]: 100% and 52.52% and 98.5% and 0% and 0.76%
tail-withdrawal latency, 10 min [1, 7]: 15 s and 8.4 s and 14.8 s and 1.8 s and 1.9 s
%A-20 min [1, 6]: 39.6638%
tail-withdrawal latency, 20 min [1, 6]: 6.8125 s
%A-20 min [1, 7]: 34.59% and 36.76% and 15.83% and 23.31% and 0% and 6.82%
tail-withdrawal latency, 20 min [1, 7]: 6.3 s and 6.4 s and 3.3 s and 4.8 s and 1 s and 2.7 s
%A-30 min [1, 6]: 26.1938%
tail-withdrawal latency, 30 min [1, 6]: 5.125 s
%A-30 min [1, 7]: 21.8% and 44.85% and 16.55% and 0% and 4.55%
tail-withdrawal latency, 30 min [1, 7]: 4.6 s and 7.5 s and 3.4 s and 2.2 s and 2.4 s
%A-40 min [1, 6]: 17.335%
tail-withdrawal latency, 40 min [1, 6]: 3.9125 s
%A-40 min [1, 7]: 14.29% and 16.91% and 15.83% and 12.78% and 7.81% and 6.82%
tail-withdrawal latency, 40 min [1, 7]: 3.6 s and 3.7 s and 3.3 s and 3.4 s and 3.2 s and 2.7 s
%A-50 min [1, 6]: 20.3588%
tail-withdrawal latency, 50 min [1, 6]: 4.2125 s
%A-50 min [1, 7]: 11.28% and 27.21% and 10.07% and 32.33% and 0% and 6.06%
tail-withdrawal latency, 50 min [1, 7]: 3.2 s and 5.1 s and 2.5 s and 6 s and 1.3 s and 2.6 s
%A-60 min [1, 6]: 11.2062%
tail-withdrawal latency, 60 min [1, 6]: 3.0875 s
%A-60 min [1, 7]: 3.76% and 12.5% and 6.47% and 0.75% and 6.25% and 1.52%
tail-withdrawal latency, 60 min [1, 7]: 2.2 s and 3.1 s and 2 s and 1.8 s and 3 s
%A-70 min [1, 6]: 9.87%
tail-withdrawal latency, 70 min [1, 6]: 2.85 s
%A-70 min [1, 7]: 5.26% and 19.85% and 3.6% and 7.52% and 0% and 10.61%
tail-withdrawal latency, 70 min [1, 7]: 2.4 s and 4.1 s and 1.6 s and 2.7 s and 1.8 s and 3.2 s
%A-80 min [1, 6]: 8.631%
tail-withdrawal latency, 80 min [1, 6]: 2.725 s
%A-80 min [1, 7]: 1.5% and 30.88% and 2.16% and 12.78% and 3.91% and 8.33%
tail-withdrawal latency, 80 min [1, 7]: 1.9 s and 5.6 s and 1.4 s and 3.4 s and 2.7 s and 2.9 s
%A-90 min [1, 6]: 1.379%
tail-withdrawal latency, 90 min [1, 6]: 1.7125 s
%A-90 min [1, 7]: 0% and 0.74% and 0.72% and 0.78% and 0.76%
tail-withdrawal latency, 90 min [1, 7]: 1.5 s and 1.2 s and 1.6 s and 2.3 s and 1.9 s
%A-100 min [1, 8]: 1.217%
tail-withdrawal latency, 100 min [1, 8]: 1.55 s
%A-100 min [1, 7]: 0.75% and 1.47% and 2.16% and 0%
tail-withdrawal latency, 100 min [1, 7]: 1.8 s and 1.6 s and 1.4 s and 1.5 s
%A-110 min [1, 8]: 0.365%
tail-withdrawal latency, 110 min [1, 8]: 1.467 s
%A-110 min [1, 7]: 0% and 0.74% and 0.72%
tail-withdrawal latency, 110 min [1, 7]: 1.7 s and 1.5 s and 1.2 s
%A-10 min [1, 9]: 100% and 55.47%
tail-withdrawal latency, 10 min [1, 9]: 15 s and 8.9 s
%A-20 min [1, 9]: 100%
tail-withdrawal latency, 20 min [1, 9]: 15 s
%A-30 min [1, 9]: 38.69% and 61.31%
tail-withdrawal latency, 30 min [1, 9]: 6.6 s and 9.7 s
%A-40 min [1, 9]: 31.39% and 32.85%
tail-withdrawal latency, 40 min [1, 9]: 5.6 s and 5.8 s
%A-50 min [1, 9]: 45.26% and 30.66%
tail-withdrawal latency, 50 min [1, 9]: 7.5 s and 5.5 s
%A-60 min [1, 9]: 13.14% and 45.26%
tail-withdrawal latency, 60 min [1, 9]: 3.1 s and 7.5 s
%A-70 min [1, 9]: 19.71% and 12.41%
tail-withdrawal latency, 70 min [1, 9]: 4 s and 3 s
%A-80 min [1, 9]: 8.03% and 1.46%
tail-withdrawal latency, 80 min [1, 9]: 2.4 s and 1.5 s
%A-90 min [1, 9]: 2.92% and 5.11%
tail-withdrawal latency, 90 min [1, 9]: 1.7 s and 2 s
%A-100 min [1, 9]: 0% and 2.92%
tail-withdrawal latency, 100 min [1, 9]: 1.3 s and 1.7 s
%A-110 min [1, 9]: 0% and 0.73%
tail-withdrawal latency, 110 min [1, 9]: 1.3 s and 1.4 s
antinociception in DOR KO mice vs WT [1, 10]: remained intact
antinociception in KOR KO mice vs WT [1, 10]: attenuated
antinociception in MOR KO mice vs WT [1, 10]: attenuated
Ki (α2C-adrenoreceptors): 2980 nM
selectivity for MOR and KOR over DOR (mDOR [2]): more than 40 fold
Emax (MOR; HEK-293T, read-out: Emax% cAMP inhibition hMOR): 33 ± 1.4%
EC50 (MOR; pEC50 cAMP inhibition hMOR): 0.0339 nM
Ki (DOR): 60.1 nM
Emax (mDOR [3]): 10 to 15%
